Data published in the NIST ThermoML archive (doi:10.1021/acs.jced.6b00606).

Assay: molar heat capacity at constant pressure; xn = mol fraction of the nth substance listed
Settings: 100 kPa, Liquid

O=C1CCCCCC1 [cycloheptanone] + C1CCOCC1
molar heat capacity at constant pressure [J/K/mol], Extra sensitive DSC
Settings	293.15 K	298.15 K	303.15 K	308.15 K
x2 = 0.1121	196.3	197.43	198.93	200.52
x2 = 0.1652	194.07	195.27	196.82	198.49
x2 = 0.2103	192.18	193.43	195.03	196.74
x2 = 0.2652	189.86	191.15	192.76	194.53
x2 = 0.3187	187.56	188.91	190.53	192.28
x2 = 0.3562	185.92	187.28	188.93	190.71
x2 = 0.4036	183.78	185.22	186.84	188.65
x2 = 0.4562	181.33	182.82	184.44	186.27
x2 = 0.4921	179.6	181.13	182.76	184.65
x2 = 0.5341	177.51	179.07	180.74	182.63
x2 = 0.5896	174.63	176.29	177.96	179.93
x2 = 0.6231	172.8	174.52	176.25	178.18
x2 = 0.6741	169.93	171.69	173.45	175.49
x2 = 0.7256	166.92	168.74	170.53	172.58
x2 = 0.7769	163.72	165.58	167.38	169.46
x2 = 0.8321	160.14	162	163.83	165.92
x2 = 0.8754	157.18	159.06	160.84	162.89
x2 = 0.9365	152.82	154.62	156.31	158.31

O=C1CCCCCC1 [cycloheptanone] + C1COCCO1
molar heat capacity at constant pressure [J/K/mol], Extra sensitive DSC
Settings	293.15 K	298.15 K	303.15 K	308.15 K
x2 = 0.0943	199.36	200.68	202.21	203.95
x2 = 0.1587	198.02	199.53	201.25	203.14
x2 = 0.2016	197.04	198.63	200.42	202.4
x2 = 0.2574	195.59	197.23	199.23	201.2
x2 = 0.3025	194.28	196	197.99	200.03
x2 = 0.3412	193.02	194.78	196.83	198.81
x2 = 0.3986	190.94	192.67	194.91	196.9
x2 = 0.4215	189.98	191.84	194.03	196.02
x2 = 0.4796	187.51	189.28	191.5	193.56
x2 = 0.5213	185.45	187.35	189.58	191.52
x2 = 0.5743	182.67	184.52	186.79	188.83
x2 = 0.6142	180.46	182.26	184.49	186.55
x2 = 0.6687	177.12	178.92	181.02	183.16
x2 = 0.7149	174.07	175.86	177.95	180.03
x2 = 0.7623	170.7	172.51	174.5	176.57
x2 = 0.8169	166.69	168.4	170.24	172.25
x2 = 0.8654	162.9	164.56	166.21	168.11
x2 = 0.9149	158.86	160.38	161.87	163.59

O=C1CCCCC1 [cyclohexanone] + C1CCOCC1
molar heat capacity at constant pressure [J/K/mol], Extra sensitive DSC
Settings	293.15 K	298.15 K	303.15 K	308.15 K
x2 = 0.0995	176.32	178.62	180.9	183.36
x2 = 0.1452	175.99	178.41	181.03	183.58
x2 = 0.1965	175.76	178.4	181.02	183.49
x2 = 0.2456	175.65	178.24	180.93	183.53
x2 = 0.2863	175.47	178.06	180.64	183.3
x2 = 0.3321	175.13	177.68	180.22	182.87
x2 = 0.3845	174.53	177.03	179.51	182.09
x2 = 0.4215	173.95	176.42	178.92	181.49
x2 = 0.4723	172.86	175.29	177.75	180.31
x2 = 0.5241	171.58	173.99	176.42	178.98
x2 = 0.5796	169.75	172.22	174.56	177.13
x2 = 0.6153	168.49	170.9	173.23	175.87
x2 = 0.6654	166.35	168.77	171.21	173.73
x2 = 0.7132	164.19	166.61	168.92	171.57
x2 = 0.7698	161.26	163.68	165.99	168.56
x2 = 0.8265	158.18	160.54	162.79	165.3
x2 = 0.8732	155.48	157.76	159.9	162.31
x2 = 0.9245	152.46	154.55	156.51	158.75

O=C1CCCCC1 [cyclohexanone] + C1COCCO1
molar heat capacity at constant pressure [J/K/mol]
Settings	293.15 K	298.15 K	303.15 K	308.15 K
x2 = 0.0799	173.61	175.65	177.71	179.75
x2 = 0.1351	171.94	173.94	175.96	177.96
x2 = 0.1965	170.17	172.12	174.08	176.03
x2 = 0.2378	169.01	170.93	172.86	174.77
x2 = 0.2874	167.66	169.54	171.43	173.28
x2 = 0.3258	166.66	168.49	170.34	172.17
x2 = 0.3642	165.66	167.46	169.27	171.07
x2 = 0.4195	164.26	166.02	167.78	169.52
x2 = 0.4625	163.21	164.92	166.62	168.33
x2 = 0.5061	162.15	163.82	165.49	167.15
x2 = 0.5543	161.01	162.63	164.25	165.88
x2 = 0.6023	159.9	161.47	163.05	164.62
x2 = 0.6487	158.83	160.36	161.9	163.44
x2 = 0.6946	157.82	159.29	160.78	162.27
x2 = 0.7412	156.79	158.22	159.66	161.12
x2 = 0.7845	155.87	157.25	158.66	160.06
x2 = 0.8398	154.71	156.04	157.39	158.74
x2 = 0.8975	153.56	154.82	156.1	157.39
